melting point [°C]	SMILES
118 to 119	COc1cc(/C=C/C(=O)C23CC4CC(CC(C4)C2)C3)cc(OC)c1 [Example 4, 1-Adamantan-1-yl-3-(3,5-dimethoxy-phenyl)-propenone]
101 to 102	O=C(/C=C/c1cnc2ccccc2c1)C1CC1 [Example 5, 1-Cyclopropyl-3-quinolin-3-yl-propenone]
125 to 127	O=C(/C=C/c1ccc2c(c1)OCCO2)C12CC3CC(CC(C3)C1)C2 [Example 11, 1-Adamantan-1-yl-3-(2,3-dihydrobenzo[1,4]dioxin-6-yl)-propenone]
138 to 140	COc1ccc(/C=C/C(=O)C23CC4CC(CC(C4)C2)C3)cc1C [Example 10, 1-Adamantan-1-yl-3-(4-methoxy-3-methyl-phenyl)-propenone]
169 to 171	O=C(/C=C/c1cnc2ccccc2c1)C12CC3CC(CC(C3)C1)C2 [Example 7, 1-Adamantan-1-yl-3-quinolin-3-yl-propenone]

From US20060074083A1, “Cyclic and acyclic propenones for treating CNS disorders” (MERZ PHARMA GMBH & CO. KGAA, priority 2004, published 2006)
